# Reference: publication PMC8869358, “High-Throughput Chemical Screening and Structure-Based Models to Predict hERG Inhibition” (Biology, 2022)
# Where a name gives a salt, the structure may show the parent alone.
# Target: hERG (Homo sapiens, UniProt Q12809)
# Test: cell-based
# Conditions: (-LOG10(IC50), µM)
# Chain of hERG (Q12809 whole entry): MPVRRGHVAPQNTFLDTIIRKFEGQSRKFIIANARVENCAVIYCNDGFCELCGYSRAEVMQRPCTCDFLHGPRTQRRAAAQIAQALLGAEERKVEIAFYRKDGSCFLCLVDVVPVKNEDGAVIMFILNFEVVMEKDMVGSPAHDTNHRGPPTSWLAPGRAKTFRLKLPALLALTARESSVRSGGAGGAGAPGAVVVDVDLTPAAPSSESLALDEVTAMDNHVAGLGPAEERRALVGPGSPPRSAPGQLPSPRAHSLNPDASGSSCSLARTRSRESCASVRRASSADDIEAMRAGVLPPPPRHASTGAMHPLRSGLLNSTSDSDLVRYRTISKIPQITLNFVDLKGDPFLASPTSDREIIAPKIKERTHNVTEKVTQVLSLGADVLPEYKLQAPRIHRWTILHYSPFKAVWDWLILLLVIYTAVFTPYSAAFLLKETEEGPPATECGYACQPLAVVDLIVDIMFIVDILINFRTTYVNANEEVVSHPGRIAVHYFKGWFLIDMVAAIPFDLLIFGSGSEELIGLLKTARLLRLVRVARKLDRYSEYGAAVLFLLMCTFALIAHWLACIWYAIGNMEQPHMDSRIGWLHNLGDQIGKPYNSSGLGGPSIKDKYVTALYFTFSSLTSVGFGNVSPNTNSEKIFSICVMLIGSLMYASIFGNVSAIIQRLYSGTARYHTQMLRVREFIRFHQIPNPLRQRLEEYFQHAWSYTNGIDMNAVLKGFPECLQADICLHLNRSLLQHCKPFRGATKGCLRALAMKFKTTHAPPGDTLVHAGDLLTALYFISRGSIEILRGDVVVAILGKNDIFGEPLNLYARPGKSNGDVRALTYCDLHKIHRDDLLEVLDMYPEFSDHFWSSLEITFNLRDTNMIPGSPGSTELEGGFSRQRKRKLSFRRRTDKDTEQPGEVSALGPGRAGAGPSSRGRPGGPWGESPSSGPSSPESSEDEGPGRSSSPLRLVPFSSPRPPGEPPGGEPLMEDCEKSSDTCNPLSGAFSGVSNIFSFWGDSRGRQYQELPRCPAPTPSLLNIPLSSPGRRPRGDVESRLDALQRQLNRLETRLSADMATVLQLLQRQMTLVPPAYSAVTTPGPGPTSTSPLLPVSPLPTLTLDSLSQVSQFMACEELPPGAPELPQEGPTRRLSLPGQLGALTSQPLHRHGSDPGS
row,Compound,IC50
1,Cc1cc(O)c2ccccc2c1O [Menadiol],2.68 µM
2,CCCCCCCCCCCCCC[n+]1ccccc1 [Tetradecylpyridinium bromide],5.49 µM
3,Nc1ccc(Oc2ccc(Cl)cc2)cc1 [4-Chloro-4'-aminodiphenyl ether],41.1 µM
4,COc1ccc(C(=O)c2ccccc2)c(O)c1 [2-Hydroxy-4-methoxybenzophenone],43.6 µM
5,O=C1CCCCCCCCCCOCCCCO1 [12-Oxahexadecanolide],49 µM
6,CC(NCCC(c1ccccc1)c1ccccc1)c1ccccc1 (stereo not shown) [Fendiline hydrochloride],1.69 µM
7,CN(C)c1ccc(C(=N)c2ccc(N(C)C)cc2)cc1 [Auramine hydrochloride],44.8 µM
8,CCCCCCCCN(C)CCCCCCCC [N-Methyldioctylamine],3.25 µM
9,N=C(N)NN=C(/C=C/c1ccc([N+](=O)[O-])o1)/C=C/c1ccc([N+](=O)[O-])o1 [Nitrovin],2.3 µM
10,O=C(COc1ccc(Cl)cc1)N1CCN(Cc2ccc3c(c2)OCO3)CC1 [Fipexide hydrochloride],16.1 µM
11,COC(=O)CSc1cc(N=c2sc(=O)n3n2CCCC3)c(F)cc1Cl [Fluthiacet-methyl],38.9 µM
12,O=C(Nc1ccccc1)OCC(CN1CCCCC1)OC(=O)Nc1ccccc1 (stereo not shown) [Diperodon hydrochloride],6.01 µM
13,CC(C(O)c1ccccc1)N(C)CCOC(c1ccccc1)c1ccccc1 (stereo not shown) [Difeterol],1.83 µM
14,CCCCN(CCCC)CCCOC(=O)c1ccc(N)cc1 [Butacaine],14.5 µM
15,CCOc1ccc2nc(N)sc2c1 [2-Amino-6-ethoxybenzothiazole],43.3 µM
16,CCCCCCn1cc[n+](C)c1 [1-Hexyl-3-methylimidazolium tetrafluoroborate],60.6 µM
17,CCOC(=O)[C@@H](C)Oc1ccc(Oc2nc3ccc(Cl)cc3o2)cc1 [Fenoxaprop-P-ethyl],26 µM
18,O=S(=O)(C(Cl)(Cl)Cl)C(Cl)(Cl)Cl [Bis(trichloromethyl)sulfone],18.8 µM
19,CCCN(CC)CC1COC2(CCC(C(C)(C)C)CC2)O1 (stereo not shown) [Spiroxamine],34.7 µM
20,COC1CC(=C(c2cccs2)c2cccs2)C[N+](C)(C)C1 (stereo not shown) [Timepidium bromide],19.7 µM
21,CCCCCCCC[N+](C)(CCCCCCCC)CCCCCCCC [Methyltrioctylammonium chloride],0.616 µM
22,CC(=O)OC1(c2ccccc2)CCN(CCc2ccccc2)CC1 [1-(2-Phenylethyl)-4-phenyl-4-acetoxypiperidine],22.4 µM

row,Compound,IC50
1,COC(=O)C1=C(C)NC(COC(N)=O)=C(C(=O)OC(C)C)C1c1cccc(Cl)c1Cl (stereo not shown) [Lemildipine],23.9 µM
2,c1ccc(OCc2ccc(CCCN3CCOCC3)cc2)cc1 [Fomocaine],10.7 µM
3,O=C1c2ccccc2S(=O)(=O)N1CCCCN1CCN(c2ncccn2)CC1 [Ipsapirone],16.9 µM
4,CCCCCCCCCCn1cc[n+](C)c1 [1-Decyl-3-methylimidazolium bromide],15 µM
5,CCN1CCCC1CNC(=O)c1cc(S(N)(=O)=O)ccc1OC (stereo not shown) [Sulpiride],34.7 µM
6,CC(C)=CCN1CC[C@@]2(C)c3cc(O)ccc3C[C@@H]1[C@@H]2C [(-)-Pentazocine succinate],22.8 µM
7,CCCCC(CC)CN1C(=O)C2C3C=CC(C3)C2C1=O (stereo not shown) [Octylbicycloheptenedicarboximide],49 µM
8,O=C(OCCN1CCOCC1)c1cccnc1Nc1cccc(C(F)(F)F)c1 [Morniflumate],10.3 µM
9,"Oc1ccc(C(c2ccc(O)cc2)C(Cl)(Cl)Cl)cc1 [2,2-Bis(4-hydroxyphenyl)-1,1,1-trichloroethane]",54.9 µM
10,Cc1nccn1-c1ccc(Sc2cccc(C3(C(N)=O)CCOCC3)c2)cc1 [CJ-013610],47.1 µM
11,O=C1OC2(c3ccc(O)cc3Oc3cc(O)ccc32)c2ccccc21 [Fluorescein],21.9 µM
12,O=C1NC2CCCCN2C12CCN(CCCN1c3ccccc3CCc3ccc(Cl)cc31)CC2 (stereo not shown) [Mosapramine],0.882 µM
13,CCC(=O)C(CCN(C)C)(c1ccccc1)c1ccccc1 [Normethadone],15.1 µM
14,CC1=CC(=O)c2ccccc2C1=O [Menadione],7.28 µM
15,NC(=O)N(O)[C@@H]1C=C[C@H](Oc2cccc(Oc3ccc(F)cc3)c2)C1 [CJ-013790],38.9 µM
16,O=[N+]([O-])c1ccc(Nc2ccccc2)cc1 [4-Nitro-N-phenylaniline],51.3 µM
17,"Cc1cc(C(C)(C)c2ccc(O)c(C)c2)ccc1O [3,3'-Dimethylbisphenol A]",41.6 µM
18,Nc1ccc(C(=O)N2CC3CC(CN(Cc4ccccc4)C3)C2)cc1 [Ambasilide],21.3 µM
19,CCOC(=O)COc1cc(-c2nn(C)c(OC(F)F)c2Cl)c(F)cc1Cl [Pyraflufen-ethyl],33.4 µM
20,"CCCCCCOc1cc(C)c(O)c(C)c1C [1-O-Hexyl-2,3,5-trimethylhydroquinone]",31.3 µM
21,CCN(CC)CCNC(=O)COc1ccc(Cl)cc1 [Clofexamide],16.3 µM
22,C[C@@H]1CC(=O)NN=C1c1ccc(NN=C(C#N)C#N)cc1 [Levosimendan],5.67 µM

row,Compound,IC50
1,"Clc1ccc(C(c2ccccc2Cl)C(Cl)(Cl)Cl)cc1 (stereo not shown) [o,p'-DDT]",21.5 µM
2,CCOC(=O)c1nc(C(Cl)(Cl)Cl)n(-c2ccc(Cl)cc2Cl)n1 [Fenchlorazole-ethyl],49 µM
3,CC(C)N(C(=O)SCC(Cl)=C(Cl)Cl)C(C)C [Tri-allate],20 µM
4,CCCCCCCCCC[N+](C)(CCCCCCCCCC)CCC[Si](OC)(OC)OC [Didecylmethyl(3-(trimethoxysilyl)propyl)ammonium chloride],2.65 µM
5,CC[N+]1(CC)CCC(=C(c2ccccc2)c2ccccc2)C1C (stereo not shown) [Prifinium bromide],20.5 µM
6,"O=[N+]([O-])c1cc(C(F)(F)F)c(Cl)c([N+](=O)[O-])c1Cl [2,4-Dichloro-1,3-dinitro-5-(trifluoromethyl)benzene]",34.7 µM
7,CC(C)(COC(=O)c1ccccc1)COC(=O)c1ccccc1 [Neopentyl glycol dibenzoate],13.8 µM
8,CCCCCCCCCCCCCC[P+](CCCCCC)(CCCCCC)CCCCCC [Trihexyltetradecylphosphonium bromide],0.44 µM
9,Cc1[nH]nc2c1N=C(c1ccccc1Cl)c1cc([N+](=O)[O-])ccc1N2 [PharmaGSID_48505],11.4 µM
10,CCn1nc(Cc2ccccc2)cc1C1CCN(C[C@H]2C[C@H](N(C)[C@@H](C(=O)O)C(C)C)C[C@@H]2c2cccc(F)c2)CC1 [MK-578],20.3 µM
11,C(=C(c1ccccc1)c1ccccc1)c1ccccc1 [Triphenylethylene],18.1 µM
12,CCN(CC)CCOC(=O)C(O)(c1ccccc1)c1ccccc1 [Benactyzine],11.5 µM
13,COc1ccc(C(=O)c2ccc(C)cc2)c(O)c1 [Mexenone],45.9 µM
14,CC1CCC(C(C)C)C(OC(=O)c2ccccc2N)C1 (stereo not shown) [Menthyl anthranilate],30.5 µM
15,O=C(CCCN1CCN(c2ccccn2)CC1)c1ccc(F)cc1 [Azaperone],4.77 µM
16,CN[C@H]1CC[C@@H](c2ccc(Cl)c(Cl)c2)c2ccc(S(N)(=O)=O)cc21 [UK-373911],6.92 µM
17,CCCCN(CCCC)CC(O)c1cc(Cl)cc2c1-c1ccc(Cl)cc1/C2=C/c1ccc(Cl)cc1 (stereo not shown) [Lumefantrine],3.65 µM
18,"Brc1ccc(Oc2ccc(Br)cc2)cc1 [4,4'-Dibromodiphenyl ether]",18.8 µM
19,"BrC1CCC(Br)C(Br)CCC(Br)C(Br)CCC1Br (stereo not shown) [1,2,5,6,9,10-Hexabromocyclododecane]",19.2 µM
20,CCN(CCC#N)c1ccc(N=Nc2c(Cl)cc([N+](=O)[O-])cc2Cl)cc1 [C.I. Disperse Orange 37],40.4 µM
21,C[C@@H](NCCCc1cccc(C(F)(F)F)c1)c1cccc2ccccc12 [Cinacalcet hydrochloride],12 µM
22,O=c1[nH]c2ccccc2n1CCCN1CCN(C(c2ccccc2)c2ccccc2)CC1 [Oxatomide],0.442 µM

row,Compound,IC50
1,CCOC(=O)C(C)Oc1ccc(Oc2nc3ccc(Cl)cc3o2)cc1 (stereo not shown) [Fenoxaprop-ethyl],30.9 µM
2,CCCCCCCCCCCCn1cc[n+](C)c1 [1-Dodecyl-3-methylimidazolium tetrafluoroborate],4.04 µM
3,Cc1c(C(=O)NN2CCCCC2)nn(-c2ccc(Cl)cc2Cl)c1-c1ccc(Cl)cc1 [Rimonabant],3.25 µM
4,CC(Cc1cccc(C(F)(F)F)c1)NCCOC(=O)c1ccccc1 (stereo not shown) [Benfluorex hydrochloride],9.52 µM
5,CN(C/C=C/C#CC(C)(C)C)Cc1cccc2ccccc12 [Terbinafine],9.52 µM
6,CCCCCCCC[n+]1ccn(C)c1 [1-Methyl-3-octylimidazolium hexafluorophosphate],17.6 µM
7,CCCOc1ccc(S(=O)(=O)N2CCN(CC)CC2)cc1-c1nc2c(CC)n(Cc3ccccn3)nc2c(=O)[nH]1 [UK-343664],21.9 µM
8,C=CCOC(Cn1ccnc1)c1ccc(Cl)cc1Cl (stereo not shown) [Imazalil sulfate],21.3 µM
9,c1ccc(-c2ccc(C(c3ccccc3)n3ccnc3)cc2)cc1 (stereo not shown) [Bifonazole],12.5 µM
10,CC(C)=CCC[C@](C)(O)[C@@H]1CC=C(C)CC1 [Levomenol],38.9 µM
11,CCCCCCCCCCn1cc[n+](C)c1 [1-Decyl-3-methylimidazolium hexafluorophosphate],8.37 µM
12,Cc1nc2n(c(=O)c1CCN1CCC(C(=O)c3ccc(F)cc3)CC1)CCS2 [Setoperone],9.89 µM
13,N#CSCSC#N [Methylene bis(thiocyanate)],50.1 µM
14,COC(=O)[C@H]1[C@H]2C[C@@H]3c4[nH]c5cc(OC)ccc5c4CCN3C[C@H]2C[C@@H](OC(=O)c2cc(OC)c(OC)c(OC)c2)[C@@H]1OC [Reserpine],9.16 µM
15,CCOC(=O)COc1cc(-n2ncc(C(F)(F)F)c(C)c2=O)c(F)cc1Cl [Flufenpyr-ethyl],30.9 µM
16,CNCCCC1c2ccccc2C=Cc2ccccc21 [Protriptyline hydrochloride],23.9 µM
17,O=C1CCCC=CCCCCCCCCCC1 [5-Cyclohexadecen-1-one],29.2 µM
18,CN1CCN(C2=Nc3ccccc3Sc3ccc(Cl)cc32)CC1 [Clothiapine],21.3 µM
19,CCCCCCCCCCCCc1ccc(O)cc1 [4-Dodecylphenol],19.5 µM
20,CN1C(CSCC(F)(F)F)Nc2cc(Cl)c(S(N)(=O)=O)cc2S1(=O)=O (stereo not shown) [Polythiazide],19.7 µM
21,"ClC(Cl)=C(c1ccc(Cl)cc1)c1ccccc1Cl [o,p'-DDE]",21 µM
22,"O=C1C=CC(=O)c2ccccc21 [1,4-Naphthoquinone]",21 µM
